Results: patent publication US9562044B2, “2-acylaminothiazole derivative or salt thereof” (ASTELLAS PHARMA INC., priority 2013, dated 2017)
Structures can show the parent of a compound that is named as a salt.

Molecular target: T1, human c-Mpl receptor (Homo sapiens, UniProt P40238)
T1 construct: expressed in transfected cells
T1 sequence (P40238 26-635): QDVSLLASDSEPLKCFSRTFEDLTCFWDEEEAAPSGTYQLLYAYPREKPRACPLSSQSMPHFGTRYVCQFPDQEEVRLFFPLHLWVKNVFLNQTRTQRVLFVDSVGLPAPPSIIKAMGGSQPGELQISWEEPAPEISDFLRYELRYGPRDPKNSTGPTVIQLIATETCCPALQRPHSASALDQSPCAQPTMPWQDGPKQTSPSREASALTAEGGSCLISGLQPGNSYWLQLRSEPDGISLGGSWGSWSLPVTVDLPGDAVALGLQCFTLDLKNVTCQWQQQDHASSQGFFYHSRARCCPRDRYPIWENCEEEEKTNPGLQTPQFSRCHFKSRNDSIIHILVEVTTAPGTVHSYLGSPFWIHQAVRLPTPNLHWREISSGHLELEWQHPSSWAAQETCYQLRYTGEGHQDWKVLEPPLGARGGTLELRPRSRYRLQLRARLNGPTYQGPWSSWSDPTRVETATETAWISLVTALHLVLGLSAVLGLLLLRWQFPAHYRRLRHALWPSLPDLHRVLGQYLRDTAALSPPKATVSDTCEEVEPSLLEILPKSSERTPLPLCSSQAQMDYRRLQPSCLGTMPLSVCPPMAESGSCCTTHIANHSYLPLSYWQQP
Test: Human c-Mpl-introduced Ba/F3 cell proliferative activity
Type: cell-based
Conditions: concentration showing 30% proliferation; 100% = positive control at 1 μM
Experimental: Evaluation of Human c-Mpl-Introduced Ba/F3 Cell Proliferative Activity
The human c-Mpl-introduced Ba/F3 cell proliferative activity was measured by the following method.
As a positive control, 1-(5-{[4-(4-chloro-2-thienyl)-5-{[(2R)-2-methylpyrrolidin-1-yl]methyl}-1,3-thiazol-2-yl]carbamoyl}-3-fluoropyridin-2-yl)piperidine-4-carboxylic acid hydrochloride, which is disclosed as Example 315 in Patent Document 1 and represented by the formula A1, was used. It is known that the compound has a good human c-Mpl-introduced Ba/F3 cell proliferative activity as disclosed in Table 1 of Patent Document 1.
a) Construction of Human c-Mpl Receptor Expression Vector
A human c-mpl receptor gene (GenBank Accession No. M90102.1) was introduced into an expression vector pEF-BOS (Nucleic Acids Res. 18, 5322, 1990).
b) Construction of Cell Stably Expressing Human c-Mpl Receptor
A human c-Mpl receptor expression vector was introduced into a Ba/F3 cell (RIKEN BRC: RCB0805). For the introduction, an electroporation method was used. pEF-BOS-c-mpl (10 μg), pSV2bsr (1 μg, Kaken Pharmaceutical Co., Ltd.) and 1×10^7 Ba/F3 cells were put into a cuvette having a gap width of 0.4 cm, and electroporated under the conditions of 1.5 kV (25 μF) by a Gene Pulser (registered trademark) (BioRad). The cells were cultured in an RPMI-1640 culture medium containing 0.5% WEHI conditioned media (BD Biosciences) and 10% fetal bovine serum for 3 days, and then cultured in an RPMI-1640 culture medium, to which 10 μg/mL blasticidin had been further added, for 30 days to acquire a drug-resistant clone.
c) Measurement of Cell Proliferative Activity
The cells obtained in b) above was cultured in an RPMI-1640 culture medium containing 0.5% WEHI conditioned media, 10% fetal bovine serum, and used. On the day before the experiment, test substances (final concentration of 100 nM to 10 μM) which had been dissolved in a culture medium for assay (RPMI-1640 culture medium containing 10% fetal bovine serum) were added to a 384-well plate (Lot No. 781185, Greiner Bio-One). The cells in the culture medium that had been replaced with a culture medium for assay were dispensed into a 384-well plate, to which the test substances had been added in advance, to 1×10^4 cells/well, and cultured at 37° C. and 5% CO2 overnight. On the experiment day, a solution of a Cell Counting Kit (Dojindo Laboratories) was added to each well of the 384-well plate and cultured at 37° C. and 5% CO2 for about 5 hours. Thereafter, the absorbance (absorption wavelength of 450 nm) of each well was measured using Safire^2™ (TECAN) and used as the index of the number of cells. Further, as a negative control, a well in which the test substance had been not added was prepared.
The absorbance of the well without the test substance was set to 0%, and the absorbance in the case where the positive control was added at a final concentration of 1 μM was set to 100%. From the absorbance in the case where the test substance had been added, a cell proliferation rate (%) was calculated. From the obtained results, the test substance concentration showing 30% proliferation was calculated as an EC30 value by a logistic regression method.

C[C@@H]1CCCN1Cc1sc(NC(=O)c2cnc(N3CCC(C(=O)O)CC3)cn2)nc1-c1cc(Cl)cs1 [Example 4, 1-(5-{[4-(4-chloro-2-thienyl)-5-{[(2R)-2-methylpyrrolidin-1-yl]methyl}-1,3-thiazol-2-yl]carbamoyl}pyrazin-2-yl)piperidine-4-carboxylic acid dihydrochloride]
Test Example 2 EC30: 0.35 µM

CC[C@@H]1CCCN1Cc1sc(NC(=O)c2cnc(N3CCC(C(=O)O)CC3)cn2)nc1-c1cc(F)cc(C(F)(F)F)c1 [Example 115]
Test Example 2 EC30: >10 µM

CC[C@@H]1CCCN1Cc1sc(NC(=O)c2cnc(N3CCC(C(=O)O)CC3)cn2)nc1-c1ccc(OC)c(C(F)(F)F)c1 [Example 156]
Test Example 2 EC30: >10 µM
